Assays:
Type in all cases: cell-based
[1] = biological target: T1, HLA-A2 (Homo sapiens, UniProt P04439, D140Y/D185E/D98H/E176V/E277Q/G131W/G231S/I119V/I121R/I166T/I218V/L300P/L318F/N151K/N90K/P208A/P217A/Q86G/Q94H/R138H/R169H/T345S); test: T2 HLA-stabilization (peptide-binding) assay by flow cytometry; conditions: peptide incubated with T2 cells (25 μg per FIG. 5)
T1 construct: endogenous in cells; host or cells: T2 cells
Experimental: FIG. 5 depicts a T2 Peptide-binding assay, in which 25 μg of peptide were incubated with T2 cells, levels of HLA-A2 levels were measured by flow cytometry and are indicated as Mean Fluorescence Intensity units.
(§1) T2 HLA-stabilization assays were performed to confirm HLA-A2 binding activity of Her577 by flow cytometry. PBMC from 9 healthy donors were stimulated with Her577 and tested in ^51Cr-release cytotoxicity (CTX) assays against 3 HER2/neu-expressing tumor cell lines.

[2] = system: LNCaP tumor cells; test: 51Cr-release cytotoxicity (CTX) assay with peptide-stimulated CTL against LNCaP; conditions: for average specific CTX (% lysis) against LNCaP: peptide-stimulated CTL from healthy donor PBMC, LNCaP (HLA-A2+), n = 2
Experimental: as §1

[3] = system: SKOV-3 tumor cells; test: 51Cr-release cytotoxicity (CTX) assay with peptide-stimulated CTL against SKOV-3; conditions: for average specific CTX (% lysis) against SKOV-3: peptide-stimulated CTL from healthy donor PBMC, SKOV-3 (HLA-A3+), n = 2
Experimental: as §1

[4] = system: MCF-7 tumor cells; test: 51Cr-release cytotoxicity (CTX) assay with peptide-stimulated CTL against MCF-7; conditions: for average specific CTX (% lysis) against MCF-7: peptide-stimulated CTL from healthy donor PBMC, MCF-7 (HLA-A2+), n = 5
Experimental: as §1

[5] = Her577-stimulated CTL, targets pre-treated with Tz at 50 μg/ml for 24 h, P=0.19

| Substance | mean fluorescence intensity (HLA-A2 level on T2 cells) [1] | average specific CTX (% lysis) against LNCaP [2] | average specific CTX (% lysis) against SKOV-3 [3] | average specific CTX (% lysis) against MCF-7 [4] | increase in specific CTX versus untreated LNCaP [2, 5] | increase in specific CTX versus untreated SKOV-3 [3, 5] | increase in specific CTX versus untreated MCF-7 [4, 5] |
| --- | --- | --- | --- | --- | --- | --- | --- |
| GP2: immunogenic peptide from HER2/neu (IISAVVGIL) [reference compound] | 682 | 26 ± 9 % lysis | 46 ± 5 % lysis | 48 ± 1 % lysis | – | – | – |
| Her577: peptide Her577 (aa; 577-585) within the Ab-binding site of trastuzumab on HER2/neu (FGPEADQCV) | 1275 | 30 ± 3 % lysis | 49 ± 28 % lysis | 45 ± 3 % lysis | 83% | 47% | 16% |
